{"source": "patent US8518450B2", "about": "“Nanoparticle carriers for drug administration and process for producing same” (CSIR, priority 2008, dated 2013)", "key": {"[1]": {"assay": "Drug incorporation / encapsulation efficiency of INH (UV-Vis)", "assay_type": "physicochemical", "conditions": "spray dried PLGA nanoparticles, PLGA:INH 2:1", "procedure": "The amount of the hydrophilic drug Isoniazid that was entrapped in the particle powder after the nanoencapsulation process was measured in triplicate using a spectrophotometric method (UV-Vis, Thermo Spectronic Heliosα). The encapsulation efficiency of INH in nanoparticles was determined as the mass ratio of the entrapped INH to the theoretical amount of INH used in the preparation. For that, 50 mg of precipitated particles were re-suspended in 20 ml of deionised water, centrifuged (10 000 rpm/10 C/5 min) to remove the un-encapsulated drug and the supernatant was subject to UV-Vis Spectrophotometer, read at λ=262 nm for INH assessment. The encapsulated amount of INH was determined by subtracting INH in the supernatant from total initial INH amount."}, "[2]": {"assay": "INH stability assessment using RP-HPLC", "assay_type": "physicochemical", "conditions": "formulation with lactose", "procedure": "The stability of INH spray dried powders was assessed by reverse phase-high performance liquid chromatography-analysis (RP-HPLC) using Shimadzu machine supplied with Photodiode Array (PDA) detector.\nThe following characteristics were applied: a Column Phenomenex [(C18 (5 μm); (250×4.6 mm ID)], a mobile phase of 5% (v/v) acetonitrile with 95% (v/v) buffer NaH2PO4 (pH 6.8), at a flow rate of 1 ml/min and at a temperature of 30° C. The detection was performed using PDA at λ=259 nm, on a total injection volume of 20 μl."}}}
{"smiles": "NNC(=O)c1ccncc1", "note": "[INH, isoniazid]", "values": [{"measurement": "encapsulation efficiency of INH", "setting": "[1]", "value": "~60", "unit": "%"}, {"measurement": "stability of INH in spray dried powders (HPLC)", "setting": "[2]", "value": "degradation of INH"}]}
